Measured values from PubChem BioAssay (NCI).
Where “and” joins values, the source holds several entries; their conditions need not be identical. Equal values may be shown once.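 96-well plates; 48 h exposure; 5 concentrations. Endpoints by linear interpolation between flanking doses. Not reached: highest tested concentration assigned. Here, GI50 denotes the concentration required for 50% inhibition of growth. TGI: concentration producing complete growth inhibition.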

Legend:
Assay in all cases: NCI anticancer screen, dose series, 48 h
OVCAR-3 ovarian = tested on: OVCAR-3 ovarian
COLO 205 colon = tested on: COLO 205 colon
OVCAR-5 ovarian = tested on: OVCAR-5 ovarian
IGROV1 ovarian = tested on: IGROV1 ovarian
SK-MEL-5 melanoma = tested on: SK-MEL-5 melanoma
A549 NSCLC = tested on: A549 NSCLC
SW-620 colon = tested on: SW-620 colon
SNB-19 CNS = tested on: SNB-19 CNS
HOP-92 NSCLC = tested on: HOP-92 NSCLC
SK-OV-3 ovarian = tested on: SK-OV-3 ovarian
MOLT-4 leukemia = tested on: MOLT-4 leukemia
ACHN renal = tested on: ACHN renal
HOP-62 NSCLC = tested on: HOP-62 NSCLC
DU-145 prostate = tested on: DU-145 prostate
MALME-3M melanoma = tested on: MALME-3M melanoma
PC-3 prostate = tested on: PC-3 prostate
MDA-N = tested on: MDA-N
K-562 leukemia = tested on: K-562 leukemia
SN12C renal = tested on: SN12C renal
NCI-H23 lung = tested on: NCI-H23 lung
SNB-75 CNS = tested on: SNB-75 CNS
T-47D breast = tested on: T-47D breast
OVCAR-8 ovarian = tested on: OVCAR-8 ovarian
HT29 colon = tested on: HT29 colon
M14 melanoma = tested on: M14 melanoma
RXF 393 renal = tested on: RXF 393 renal
TK-10 renal = tested on: TK-10 renal
UACC-62 melanoma = tested on: UACC-62 melanoma
CCRF-CEM leukemia = tested on: CCRF-CEM leukemia
NCI/ADR-RES ovarian = tested on: NCI/ADR-RES ovarian
HL-60(TB) leukemia = tested on: HL-60(TB) leukemia
EKVX NSCLC = tested on: EKVX NSCLC
MDA-MB-231 breast = tested on: MDA-MB-231 breast
NCI-H522 lung = tested on: NCI-H522 lung
UACC-257 melanoma = tested on: UACC-257 melanoma
SF-268 CNS = tested on: SF-268 CNS
LOX IMVI melanoma = tested on: LOX IMVI melanoma
SK-MEL-28 melanoma = tested on: SK-MEL-28 melanoma
SF-539 CNS = tested on: SF-539 CNS
SF-295 CNS = tested on: SF-295 CNS
NCI-H226 lung = tested on: NCI-H226 lung
UO-31 renal = tested on: UO-31 renal
BT-549 breast = tested on: BT-549 breast
NCI-H460 lung = tested on: NCI-H460 lung
HCT-116 colon = tested on: HCT-116 colon
SK-MEL-2 melanoma = tested on: SK-MEL-2 melanoma
786-0 renal = tested on: 786-0 renal
U251 CNS = tested on: U251 CNS
HS 578T breast = tested on: HS 578T breast
HCT-15 colon = tested on: HCT-15 colon
A498 renal = tested on: A498 renal
CAKI-1 renal = tested on: CAKI-1 renal
MCF7 breast = tested on: MCF7 breast
RPMI-8226 leukemia = tested on: RPMI-8226 leukemia
OVCAR-4 ovarian = tested on: OVCAR-4 ovarian
HCC-2998 colon = tested on: HCC-2998 colon
SR leukemia = tested on: SR leukemia
KM12 colon = tested on: KM12 colon
MDA-MB-435 = tested on: MDA-MB-435

CCOP(=O)(O)CC1OC(CO)C(O)C1O (configuration not stated) was tested, and the TGI (OVCAR-3 ovarian) was > 100 µM, the TGI (COLO 205 colon) was > 100 µM and the TGI (OVCAR-5 ovarian) was > 100 µM. For the same molecule, the TGI (IGROV1 ovarian) was > 100 µM, the TGI (SK-MEL-5 melanoma) was > 100 µM and the TGI (A549 NSCLC) was > 100 µM. For the same molecule, the TGI (SW-620 colon) was > 100 µM, the TGI (SNB-19 CNS) was > 100 µM and the TGI (HOP-92 NSCLC) was > 100 µM. For the same molecule, the TGI (SK-OV-3 ovarian) was > 100 µM, the TGI (MOLT-4 leukemia) was > 100 µM and the TGI (ACHN renal) was > 100 µM. For the same molecule, the TGI (HOP-62 NSCLC) was > 100 µM, the TGI (DU-145 prostate) was > 100 µM and the TGI (MALME-3M melanoma) was > 100 µM. The TGI (PC-3 prostate) was > 100 µM, the TGI (MDA-N) was > 100 µM and the TGI (K-562 leukemia) was > 100 µM. The TGI (SN12C renal) was > 100 µM, the TGI (NCI-H23 lung) was > 100 µM and the TGI (SNB-75 CNS) was > 100 µM. For the same molecule, the TGI (T-47D breast) was > 100 µM, the TGI (OVCAR-8 ovarian) was > 100 µM and the TGI (HT29 colon) was > 100 µM. For the same molecule, the TGI (M14 melanoma) was > 100 µM, the TGI (RXF 393 renal) was > 100 µM and the TGI (TK-10 renal) was > 100 µM. For the same molecule, the TGI (UACC-62 melanoma) was > 100 µM, the TGI (CCRF-CEM leukemia) was > 100 µM and the TGI (NCI/ADR-RES ovarian) was > 100 µM. For the same molecule, the GI50 (HL-60(TB) leukemia) was 30.1 µM and > 100 µM, the TGI (HL-60(TB) leukemia) was > 100 µM and the TGI (EKVX NSCLC) was > 100 µM. For the same molecule, the TGI (MDA-MB-231 breast) was > 100 µM, the TGI (NCI-H522 lung) was > 100 µM and the TGI (UACC-257 melanoma) was > 100 µM. For the same molecule, the TGI (SF-268 CNS) was > 100 µM, the TGI (LOX IMVI melanoma) was > 100 µM and the TGI (SK-MEL-28 melanoma) was > 100 µM. The TGI (SF-539 CNS) was > 100 µM, the TGI (SF-295 CNS) was > 100 µM and the TGI (NCI-H226 lung) was > 100 µM. The TGI (UO-31 renal) was > 100 µM, the TGI (BT-549 breast) was > 100 µM and the TGI (NCI-H460 lung) was > 100 µM. For the same molecule, the TGI (HCT-116 colon) was > 100 µM, the TGI (SK-MEL-2 melanoma) was > 100 µM and the TGI (786-0 renal) was > 100 µM. The TGI (U251 CNS) was > 100 µM, the TGI (HS 578T breast) was > 100 µM and the TGI (HCT-15 colon) was > 100 µM.
In the case of CC(C)(C)OC(=O)NC(CSCc1ccc(C(=O)c2ccccc2)cc1)C(=O)O (configuration not stated), the TGI (OVCAR-3 ovarian) is reported as > 100 µM, the TGI (COLO 205 colon) is reported as > 100 µM and the TGI (OVCAR-5 ovarian) is reported as > 100 µM. For the same molecule, the TGI (IGROV1 ovarian) was > 100 µM, the TGI (SK-MEL-5 melanoma) was > 100 µM and the TGI (A549 NSCLC) was > 100 µM. The TGI (SW-620 colon) was > 100 µM, the TGI (SNB-19 CNS) was > 100 µM and the TGI (HOP-92 NSCLC) was > 100 µM. The TGI (MOLT-4 leukemia) was > 100 µM, the TGI (A498 renal) was > 100 µM and the TGI (ACHN renal) was > 100 µM. For the same molecule, the TGI (HOP-62 NSCLC) was > 100 µM, the TGI (DU-145 prostate) was > 100 µM and the TGI (MALME-3M melanoma) was > 100 µM. The TGI (CAKI-1 renal) was > 100 µM, the TGI (PC-3 prostate) was > 100 µM and the TGI (MDA-N) was > 100 µM. The TGI (K-562 leukemia) was > 100 µM, the TGI (SN12C renal) was > 100 µM and the TGI (NCI-H23 lung) was > 100 µM. The TGI (SNB-75 CNS) was > 100 µM, the TGI (OVCAR-8 ovarian) was > 100 µM and the TGI (HT29 colon) was > 100 µM. For the same molecule, the TGI (MCF7 breast) was > 100 µM, the TGI (RXF 393 renal) was > 100 µM and the TGI (TK-10 renal) was > 100 µM. For the same molecule, the TGI (RPMI-8226 leukemia) was > 100 µM, the TGI (CCRF-CEM leukemia) was > 100 µM and the TGI (OVCAR-4 ovarian) was > 100 µM. For the same molecule, the TGI (NCI/ADR-RES ovarian) was > 100 µM, the TGI (HCC-2998 colon) was > 100 µM and the TGI (HL-60(TB) leukemia) was > 100 µM. For the same molecule, the TGI (EKVX NSCLC) was > 100 µM, the TGI (SR leukemia) was > 100 µM and the TGI (MDA-MB-231 breast) was > 100 µM. For the same molecule, the TGI (NCI-H522 lung) was > 100 µM, the TGI (KM12 colon) was > 100 µM and the TGI (UACC-257 melanoma) was > 100 µM. The TGI (SF-268 CNS) was > 100 µM, the TGI (LOX IMVI melanoma) was > 100 µM and the TGI (SK-MEL-28 melanoma) was > 100 µM. For the same molecule, the TGI (SF-539 CNS) was > 100 µM, the TGI (MDA-MB-435) was > 100 µM and the TGI (SF-295 CNS) was > 100 µM. For the same molecule, the TGI (NCI-H226 lung) was > 100 µM, the TGI (UO-31 renal) was > 100 µM and the TGI (BT-549 breast) was > 100 µM. The TGI (NCI-H460 lung) was > 100 µM, the TGI (HCT-116 colon) was > 100 µM and the TGI (786-0 renal) was > 100 µM. For the same molecule, the TGI (U251 CNS) was > 100 µM, the TGI (HS 578T breast) was > 100 µM and the TGI (HCT-15 colon) was > 100 µM.
With CN(C)c1ccc(/C=C2\C[C@H]3[C@@H]4CC=C5C[C@@H](O)CC[C@]5(C)[C@H]4CC[C@]3(C)C2=O)cc1 the TGI (OVCAR-3 ovarian) was 66.8 µM, the TGI (COLO 205 colon) was > 100 µM and the TGI (OVCAR-5 ovarian) was 46.4 µM. For the same molecule, the TGI (IGROV1 ovarian) was 35.8 µM, the TGI (SK-MEL-5 melanoma) was > 100 µM and the TGI (A549 NSCLC) was 44.4 µM. The TGI (SW-620 colon) was > 100 µM, the TGI (SNB-19 CNS) was 39.3 µM and the TGI (SK-OV-3 ovarian) was 63.7 µM. The TGI (MOLT-4 leukemia) was > 100 µM, the TGI (A498 renal) was 38.2 µM and the TGI (ACHN renal) was 34.8 µM. The TGI (HOP-62 NSCLC) was 38.3 µM, the TGI (DU-145 prostate) was > 100 µM and the TGI (MALME-3M melanoma) was 39.6 µM. The TGI (PC-3 prostate) was 29.3 µM, the TGI (MDA-N) was > 100 µM and the TGI (K-562 leukemia) was > 100 µM. For the same molecule, the TGI (SN12C renal) was 54.9 µM, the TGI (NCI-H23 lung) was 81.2 µM and the TGI (SNB-75 CNS) was 57 µM. For the same molecule, the TGI (T-47D breast) was 62.8 µM, the TGI (OVCAR-8 ovarian) was 19.1 µM and the TGI (HT29 colon) was 56.2 µM. For the same molecule, the TGI (M14 melanoma) was 46 µM, the TGI (MCF7 breast) was > 100 µM and the TGI (RXF 393 renal) was 43.9 µM. The TGI (TK-10 renal) was 39.3 µM, the TGI (UACC-62 melanoma) was 32.6 µM and the TGI (RPMI-8226 leukemia) was > 100 µM. The TGI (OVCAR-4 ovarian) was 48.2 µM, the TGI (NCI/ADR-RES ovarian) was 66.8 µM and the TGI (HL-60(TB) leukemia) was > 100 µM. For the same molecule, the TGI (EKVX NSCLC) was 93.7 µM, the TGI (SR leukemia) was > 100 µM and the TGI (MDA-MB-231 breast) was 36 µM. For the same molecule, the TGI (KM12 colon) was > 100 µM, the TGI (UACC-257 melanoma) was 40.2 µM and the TGI (SF-268 CNS) was 27.7 µM. It also gave a TGI (LOX IMVI melanoma) of 29 µM, a TGI (SK-MEL-28 melanoma) of 40 µM and a TGI (SF-539 CNS) of 27.9 µM. It also gave a TGI (SF-295 CNS) of 75.8 µM, a TGI (NCI-H226 lung) of 42.3 µM and a TGI (UO-31 renal) of 18.9 µM. For the same molecule, the TGI (BT-549 breast) was > 100 µM, the TGI (NCI-H460 lung) was 33.7 µM and the TGI (HCT-116 colon) was > 100 µM. The TGI (SK-MEL-2 melanoma) was 41.4 µM, the TGI (786-0 renal) was 41 µM and the TGI (U251 CNS) was 25.9 µM. For the same molecule, the TGI (HCT-15 colon) was > 100 µM.
